Data as given in patent publication US20240325366A1, “SELECTIVE CDK9 INHIBITOR FOR THE TREATMENT OF A RAS MUTANT CANCER” (VINCERX PHARMA, INC., priority 2021, published 2024).
Where two headings read alike, the source gives them in different places.

Tests used:
Format in all cases: cell-based
[1] = tested on: panel of 500 tumor cell lines; test: antiproliferative activity, panel of 500 tumor cell lines (OmniScreen)
Text: (§1) To determine associations of genomic alterations with compound 1′ sensitivity, 458 were mapped to a cell line present in DepMap (21Q3). Of the 458 cell lines mapped, there were 440 with available mutation data in DepMap. Cell line mutation and copy number data were accessed and for mutations, the data were filtered to include variants with a “damaging” or “other non-conserving” annotation only, in order to select variants which are more likely to be functionally important. The top quartile of cell lines based on their compound 1′IC50 values were defined as groups for comparison with the bottom quartile.

143B = test: antiproliferative activity (OmniScreen); conditions: Homo sapiens, Bone, 72 hours, read-out: Absolute IC50
Text: as §1

Calu-6 = test: antiproliferative activity (OmniScreen); conditions: Homo sapiens; Calu-6, Lung, 72 hours; read-out: Absolute IC50
Text: as §1

CoC1/DDP = test: antiproliferative activity (OmniScreen); conditions: Ovary, 72 hours, read-out: Absolute IC50
Text: as §1

DV-90 = test: antiproliferative activity (OmniScreen); conditions: Homo sapiens; DV-90, Lung, 72 hours; read-out: Absolute IC50
Text: as §1

HCC44 = test: antiproliferative activity (OmniScreen); conditions: Homo sapiens; HCC44, Lung, 72 hours; read-out: Absolute IC50
Text: as §1

HEC-1-B = test: antiproliferative activity (OmniScreen); conditions: Homo sapiens, Uterus, 72 hours, read-out: Absolute IC50
Text: as §1

LCLC-97TM1 = test: antiproliferative activity (OmniScreen); conditions: Homo sapiens; LCLC-97TM1, Lung, 72 hours; read-out: Absolute IC50
Text: as §1

LS513 = test: antiproliferative activity (OmniScreen); conditions: Homo sapiens, LS-513; LS513, Large intestine/Colorectum, 72 hours; read-out: Absolute IC50
Text: as §1

MOLP8 = test: antiproliferative activity (OmniScreen); conditions: Homo sapiens, MOLP-8; MOLP8, Blood/Myeloma, 72 hours; read-out: Absolute IC50
Text: as §1

NCI-H1944 = test: antiproliferative activity (OmniScreen); conditions: Homo sapiens; NCI-H1944, Lung, 72 hours; read-out: Absolute IC50
Text: as §1

NCI-H2122 = test: antiproliferative activity (OmniScreen); conditions: Homo sapiens; NCI-H2122, Lung, 72 hours; read-out: Absolute IC50
Text: as §1

NCI-H358 = test: antiproliferative activity (OmniScreen); conditions: Homo sapiens; NCI-H358, Lung, 72 hours; read-out: Absolute IC50
Text: as §1

Panc 05.04 = test: antiproliferative activity (OmniScreen); conditions: Panc 05.04, Pancreas, 72 hours; read-out: Absolute IC50
Text: as §1

RBE = test: antiproliferative activity (OmniScreen); conditions: Liver/Bile duct, 72 hours, read-out: Absolute IC50
Text: as §1

SU-DHL-10 = test: antiproliferative activity (OmniScreen); conditions: Homo sapiens, SU-DHL10; SU-DHL-10, Lymphoma, 72 hours; read-out: Absolute IC50
Text: as §1

SU.86.86 = test: antiproliferative activity (OmniScreen); conditions: Homo sapiens; SU.86.86, Pancreas, 72 hours; read-out: Absolute IC50
Text: as §1

UM-UC-3 = test: antiproliferative activity (OmniScreen); conditions: Homo sapiens, UMUC3; UM-UC-3, Bladder, 72 hours; read-out: Absolute IC50
Text: as §1

A549 = test: in vitro cytotoxicity, MTT assay; conditions: Homo sapiens; A549, Lung, KRAS p.G12S
Method: (§2) Cultivation of cells was performed according to standard procedures with the media recommended by the provider. The cells, in a total volume of 100 μL, were seeded in a 96-well plate with a white bottom (#3610). After a 24h incubation period at 37° C. and 5% CO2 the medium was exchanged by adding 90 μL fresh medium. The treatment started by adding the test compound in 10 μL of culture medium to the cells in triplicates. Concentrations ranging from 10^−6 M to 10^−13 M were chosen. The proliferation was detected using the MTT assay (ATCC). At the end of the incubation period the MTT reagent was added to all samples for 4h. Lysis of the cells followed by addition of the detergent was done overnight. The formed dye was detected at 570 nm. The proliferation of cells was defined as the 100% value.

COLO205 = test: in vitro cytotoxicity, MTT assay; conditions: Homo sapiens, COLO 205; COLO205, Colorectal, KRAS WT
Method: as §2

HCT116 = test: in vitro cytotoxicity, MTT assay; conditions: Homo sapiens, HCT-116; HCT116, Colorectal, KRAS p.G13D
Method: as §2

HCT15 = test: in vitro cytotoxicity, MTT assay; conditions: Homo sapiens, HCT-15; HCT15, Colorectal, KRAS p.G13D
Method: as §2

HCT8 = test: in vitro cytotoxicity, MTT assay; conditions: Homo sapiens, HCT-8; HCT8, Colorectal, KRAS WT
Method: as §2

HT-29 = test: in vitro cytotoxicity, MTT assay; conditions: Homo sapiens; HT-29, Colorectal, KRAS WT
Method: as §2

MIAPaCa2 = test: in vitro cytotoxicity, MTT assay; conditions: Homo sapiens, MIA PaCa-2; MIAPaCa2, Pancreatic, KRAS pG12C
Method: as §2

NCI-H460 = test: in vitro cytotoxicity, MTT assay; conditions: Homo sapiens; NCI-H460, Lung, KRAS p.Q61H
Method: as §2

SW480 = test: in vitro cytotoxicity, MTT assay; conditions: Homo sapiens; SW480, Colorectal, KRAS p.G12V
Method: as §2

SW620 = test: in vitro cytotoxicity, MTT assay; conditions: Homo sapiens, SW-620; SW620, Colorectal, KRAS p.G12V
Method: as §2

SW837 = test: in vitro cytotoxicity, MTT assay; conditions: Homo sapiens; SW837, Colorectal, KRAS pG12C
Method: as §2

[2] = tested on: KRAS mutant colorectal and lung cancer cell lines; test: in vitro cytotoxicity, MTT assay, summary; conditions: multiple KRAS mutant colorectal and lung cancer cell lines
Method: as §2

IC50 ([1]; N=110 cell lines with mutation data in DepMap, read-out: IC50 bottom quartile (most sensitive cell lines)): ≤ 90.5 nM
IC50 ([1]; N=130 cell lines with mutation data in DepMap, read-out: IC50 top quartile (least sensitive cell lines)): ≥ 152 nM
IC50 ([1]; panel of 500 tumor cell lines, 72 hours of treatment, read-out: IC50 range, lower end): 28 nM
IC50 ([1]; panel of 500 tumor cell lines, 72 hours of treatment, read-out: IC50 range, upper end): 2100 nM
IC50 ([1]; panel of 500 tumor cell lines, 72 hours of treatment, read-out: mean IC50): 113 nM
IC50 (Calu-6): 39 nM
IC50 (HCC44): 90 nM
IC50 (NCI-H1944): 75 nM
IC50 (NCI-H2122): 70 nM
IC50 (NCI-H358): 41 nM
IC50 (Panc 05.04): 38 nM
IC50 (SU-DHL-10): 74 nM
Compound: COc1cc(F)ccc1-c1cc(Nc2cc(CS(C)(=N)=O)ccn2)ncc1F (single isomer, unassigned; (+)) [Compound 1′, (+)5-fluoro-4-(4-fluoro-2-methoxyphenyl)-N-{4-[(S-methylsulfonimidoyl)methyl]pyridin-2-yl}pyridin-2-amine]
IC50 (143B): 73 nM
IC50 (CoC1/DDP): 72 nM
IC50 (DV-90): 90 nM
IC50 (HEC-1-B): 67 nM
IC50 (LCLC-97TM1): 46 nM
IC50 (LS513): 51 nM
IC50 (MOLP8): 80 nM
IC50 (RBE): 72 nM
IC50 (SU.86.86): 82 nM
IC50 (UM-UC-3): 67 nM
IC50 (A549): 98 nM
IC50 (COLO205): 70 nM
IC50 (HCT116): 46 nM
IC50 (HCT15): 33.5 nM
IC50 (HCT8): 83 nM
IC50 (HT-29): 83 nM
IC50 (MIAPaCa2): 128 nM
IC50 (NCI-H460): 75 nM
IC50 (SW480): 143 nM
IC50 (SW620): > 500 nM
IC50 (SW837): 620 nM
activity against KRAS mutant cancer cell lines [2]: active
